pEC50, pIC50: −log10 of the molar value. Active and inactive are the calls of the source. No cut-off for these calls is given here.
Legend:
Histone deacetylase 1 [1] = biological target: T1, Histone deacetylase 1 (Homo sapiens, UniProt Q13547); test: Inhibition of recombinant HDAC1
HCT-116 [2] = test: Cytotoxicity against human HCT116 cells by MTT assay; assay type: functional, cell-based
HMEC = test: Cytotoxicity against human HMEC cells by MTT assay; assay type: cell-based
Histone deacetylase 1 [3] = biological target: T1, Histone deacetylase 1; test: Inhibition of HDAC1 in human T24 cells assessed as induction of histone H4 acetylation after 16 hrs relative to MS-275; assay type: cell-based, T-24
T-24 = test: Induction of p21WAF1/CIP1 expression in human T24 cells; assay type: functional, cell-based
HCT-116 [4] = test: Cell cycle arrest in human HCT116 cells by accumulation at G2/M phase; assay type: functional, cell-based
SW48 [5] = test: Antitumor activity in human SW48 cells xenografted mouse assessed as tumor growth inhibition at 20 mg/kg, ip qd after 14 days relative to control; assay type: functional; parameters: scale not given: the % may be the effect or the level left; settings: route intraperitoneal
SW48 [6] = test: Antitumor activity in human SW48 cells xenografted mouse assessed as tumor growth inhibition at 90 mg/kg, po qd after 14 days relative to control; assay type: functional; parameters: scale not given: the % may be the effect or the level left
A549 [7] = test: Antitumor activity in human A549 cells xenografted mouse assessed as tumor growth inhibition at 20 mg/kg, ip qd after 14 days relative to control; assay type: functional; parameters: scale not given: the % may be the effect or the level left; settings: route intraperitoneal
A549 [8] = test: Antitumor activity in human A549 cells xenografted mouse assessed as tumor growth inhibition at 90 mg/kg, po qd after 14 days relative to control; assay type: functional; parameters: scale not given: the % may be the effect or the level left
PANC-1 = test: Antitumor activity in human PANC1 cells xenografted mouse assessed as tumor growth inhibition at 20 mg/kg, ip qd after 14 days relative to control; assay type: functional; parameters: scale not given: the % may be the effect or the level left; settings: route intraperitoneal
COLO 205 = test: Antitumor activity in human COLO205 cells xenografted mouse assessed as tumor growth inhibition at 90 mg/kg, po qd after 14 days relative to control; assay type: functional; parameters: scale not given: the % may be the effect or the level left

T1 sequence (Q13547 whole entry): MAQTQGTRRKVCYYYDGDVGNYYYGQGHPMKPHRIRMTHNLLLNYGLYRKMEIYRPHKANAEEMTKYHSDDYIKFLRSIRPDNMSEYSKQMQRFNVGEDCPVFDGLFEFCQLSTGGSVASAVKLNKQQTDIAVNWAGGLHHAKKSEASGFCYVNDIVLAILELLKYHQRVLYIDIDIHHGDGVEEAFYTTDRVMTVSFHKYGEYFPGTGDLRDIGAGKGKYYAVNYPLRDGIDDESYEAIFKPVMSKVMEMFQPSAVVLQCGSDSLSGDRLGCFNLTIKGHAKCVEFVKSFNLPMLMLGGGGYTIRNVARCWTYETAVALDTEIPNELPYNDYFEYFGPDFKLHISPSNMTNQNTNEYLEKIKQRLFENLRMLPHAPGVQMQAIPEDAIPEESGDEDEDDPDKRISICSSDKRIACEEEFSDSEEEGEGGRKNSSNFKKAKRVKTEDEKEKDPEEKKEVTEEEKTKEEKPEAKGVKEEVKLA

| Structure (SMILES) | pIC50 (Histone deacetylase 1 [1]) | pEC50 (Histone deacetylase 1 [3]) | pIC50 (HCT-116 [2]) | pIC50 (HMEC) | other results |
| --- | --- | --- | --- | --- | --- |
| Nc1ccccc1NC(=O)c1ccc(CSc2nc3ccc(NCc4cccnc4)cc3s2)cc1 | 6.10 | 5.70 | 6.00 | < 4.30 |  |
| Cn1ccnc1SCc1ccc(C(=O)Nc2ccccc2N)cc1 | 6.00 |  | 5.30 |  |  |
| Nc1ccccc1NC(=O)c1ccc(CSc2nc3ccccc3[nH]2)cc1 | 7.05 | > 6.00 | 6.52 | 4.85 |  |
| Nc1ccccc1NC(=O)c1ccc(CSc2ncc[nH]2)cc1 | 6.30 |  | 5.30 |  |  |
| Nc1ccccc1NC(=O)c1ccc(CSc2nc3ccccc3s2)cc1 | 7.00 | 5.52 | 6.10 | 5.52 |  |
| CSc1nnc(NCc2ccc(C(=O)Nc3ccccc3N)cc2)[nH]1 | 6.70 |  | 6.22 |  |  |
| Nc1ccccc1NC(=O)c1ccc(CSc2nnc(-c3ccccc3)o2)cc1 | 7.10 |  | 6.40 |  |  |
| Nc1ccccc1NC(=O)c1ccc(CNc2ncc(Br)s2)cc1 | 6.40 |  | 6.40 |  |  |
| Nc1ccccc1NC(=O)c1ccc(CNc2nc3cc(Cl)ccc3o2)cc1 | 7.00 | 6.00 | 6.70 | 4.77 |  |
| Nc1ccccc1NC(=O)c1ccc(CNc2ncc(-c3ccc(Cl)cc3)s2)cc1 | 6.52 |  | 6.52 |  |  |
| Nc1ccccc1NC(=O)c1ccc(CNc2nc3ccccc3[nH]2)cc1 | 7.00 | 6.00 | 6.52 | 4.57 |  |

Now those with a higher pIC50 (Histone deacetylase 1 [1]), led by results:

| pIC50 (Histone deacetylase 1 [1]) | pEC50 (Histone deacetylase 1 [3]) | Structure (SMILES) | pIC50 (HCT-116 [2]) | pIC50 (HMEC) | other results |
| --- | --- | --- | --- | --- | --- |
| 7.15 |  | Nc1ccccc1NC(=O)c1ccc(CNc2cc(-c3ccccc3)[nH]n2)cc1 | 6.52 |  |  |
| 7.15 | 5.30 | Nc1ccccc1NC(=O)c1ccc(CSc2nc3ccc(NCCN4CCOCC4)cc3s2)cc1 | 6.70 | 4.82 |  |
| 7.15 | 5.52 | Nc1ccccc1NC(=O)c1ccc(CSc2nc3ccc(NCc4ccccn4)cc3s2)cc1 | 6.00 | 5.10 |  |
| 7.15 | 6.00 | COc1ccc2nc(SCc3ccc(C(=O)Nc4ccccc4N)cc3)[nH]c2c1 | 6.70 | 5.00 | pEC50 (T-24): 6.22; Activity (HCT-116 [4]): Active |
| 7.22 | 6.00 | Nc1ccccc1NC(=O)c1ccc(CNc2nc3ccc(OCCN4CCOCC4)cc3s2)cc1 | 6.70 | 4.82 | pEC50 (T-24): 6.00; Activity (SW48 [5]): 74%; Activity (SW48 [6]): 72%; Activity (A549 [7]): 65%; Activity (A549 [8]): 65%; Activity (PANC-1): 70%; Activity (COLO 205): 62%; Activity (HCT-116 [4]): Active |
| 7.30 | 5.70 | Nc1ccccc1NC(=O)c1ccc(CNc2nc3ccc(Br)cc3s2)cc1 | 6.40 | 5.22 |  |
| 7.52 | 6.00 | COc1ccc2nc(NCc3ccc(C(=O)Nc4ccccc4N)cc3)sc2c1 | 6.70 | 5.30 | pEC50 (T-24): 6.10; Activity (HCT-116 [4]): Active |

— ChEMBL document CHEMBL1141470, “4-(Heteroarylaminomethyl)-N-(2-aminophenyl)-benzamides and their analogs as a novel class of histone deacetylase inhibitors” (Bioorg Med Chem Lett, 2008)
